From the NIST ThermoML archive (doi:10.1021/je800416y)

Conditions: 101.33 kPa, Liquid

CN(CCO)CCO [N-methyldiethanolamine]
Conditions | mass density [kg/m3]
298.15 K | 1038.22
303.15 K | 1034.49
308.15 K | 1030.75
313.15 K | 1026.99
318.15 K | 1023.25
323.15 K | 1019.47
328.15 K | 1015.64
333.15 K | 1011.8
338.15 K | 1007.92
